pIC50: −log10 of the molar value. Positions of bridges follow the written chain, without caps; N, C: chain ends. Residues, ends and D or L forms follow the SMILES beside them.
Key:
Test in all cases: cell-based
hNav1.3 = hNav1.3 (Homo sapiens, UniProt Q9NY46); conditions: IonWorks Quattro; clamped to −110 mV, depolarized to −10 mV, 5 min after compound; n=2; read-out: IWQ Use Nav1.3
hNav1.5 = hNav1.5 (Homo sapiens, UniProt Q14524); conditions: IonWorks Quattro; clamped to −110 mV, depolarized to −10 mV, 5 min after compound; n=2; read-out: IWQ Use Nav1.5
Chain of hNav1.5 (Q14524 whole entry, looked up): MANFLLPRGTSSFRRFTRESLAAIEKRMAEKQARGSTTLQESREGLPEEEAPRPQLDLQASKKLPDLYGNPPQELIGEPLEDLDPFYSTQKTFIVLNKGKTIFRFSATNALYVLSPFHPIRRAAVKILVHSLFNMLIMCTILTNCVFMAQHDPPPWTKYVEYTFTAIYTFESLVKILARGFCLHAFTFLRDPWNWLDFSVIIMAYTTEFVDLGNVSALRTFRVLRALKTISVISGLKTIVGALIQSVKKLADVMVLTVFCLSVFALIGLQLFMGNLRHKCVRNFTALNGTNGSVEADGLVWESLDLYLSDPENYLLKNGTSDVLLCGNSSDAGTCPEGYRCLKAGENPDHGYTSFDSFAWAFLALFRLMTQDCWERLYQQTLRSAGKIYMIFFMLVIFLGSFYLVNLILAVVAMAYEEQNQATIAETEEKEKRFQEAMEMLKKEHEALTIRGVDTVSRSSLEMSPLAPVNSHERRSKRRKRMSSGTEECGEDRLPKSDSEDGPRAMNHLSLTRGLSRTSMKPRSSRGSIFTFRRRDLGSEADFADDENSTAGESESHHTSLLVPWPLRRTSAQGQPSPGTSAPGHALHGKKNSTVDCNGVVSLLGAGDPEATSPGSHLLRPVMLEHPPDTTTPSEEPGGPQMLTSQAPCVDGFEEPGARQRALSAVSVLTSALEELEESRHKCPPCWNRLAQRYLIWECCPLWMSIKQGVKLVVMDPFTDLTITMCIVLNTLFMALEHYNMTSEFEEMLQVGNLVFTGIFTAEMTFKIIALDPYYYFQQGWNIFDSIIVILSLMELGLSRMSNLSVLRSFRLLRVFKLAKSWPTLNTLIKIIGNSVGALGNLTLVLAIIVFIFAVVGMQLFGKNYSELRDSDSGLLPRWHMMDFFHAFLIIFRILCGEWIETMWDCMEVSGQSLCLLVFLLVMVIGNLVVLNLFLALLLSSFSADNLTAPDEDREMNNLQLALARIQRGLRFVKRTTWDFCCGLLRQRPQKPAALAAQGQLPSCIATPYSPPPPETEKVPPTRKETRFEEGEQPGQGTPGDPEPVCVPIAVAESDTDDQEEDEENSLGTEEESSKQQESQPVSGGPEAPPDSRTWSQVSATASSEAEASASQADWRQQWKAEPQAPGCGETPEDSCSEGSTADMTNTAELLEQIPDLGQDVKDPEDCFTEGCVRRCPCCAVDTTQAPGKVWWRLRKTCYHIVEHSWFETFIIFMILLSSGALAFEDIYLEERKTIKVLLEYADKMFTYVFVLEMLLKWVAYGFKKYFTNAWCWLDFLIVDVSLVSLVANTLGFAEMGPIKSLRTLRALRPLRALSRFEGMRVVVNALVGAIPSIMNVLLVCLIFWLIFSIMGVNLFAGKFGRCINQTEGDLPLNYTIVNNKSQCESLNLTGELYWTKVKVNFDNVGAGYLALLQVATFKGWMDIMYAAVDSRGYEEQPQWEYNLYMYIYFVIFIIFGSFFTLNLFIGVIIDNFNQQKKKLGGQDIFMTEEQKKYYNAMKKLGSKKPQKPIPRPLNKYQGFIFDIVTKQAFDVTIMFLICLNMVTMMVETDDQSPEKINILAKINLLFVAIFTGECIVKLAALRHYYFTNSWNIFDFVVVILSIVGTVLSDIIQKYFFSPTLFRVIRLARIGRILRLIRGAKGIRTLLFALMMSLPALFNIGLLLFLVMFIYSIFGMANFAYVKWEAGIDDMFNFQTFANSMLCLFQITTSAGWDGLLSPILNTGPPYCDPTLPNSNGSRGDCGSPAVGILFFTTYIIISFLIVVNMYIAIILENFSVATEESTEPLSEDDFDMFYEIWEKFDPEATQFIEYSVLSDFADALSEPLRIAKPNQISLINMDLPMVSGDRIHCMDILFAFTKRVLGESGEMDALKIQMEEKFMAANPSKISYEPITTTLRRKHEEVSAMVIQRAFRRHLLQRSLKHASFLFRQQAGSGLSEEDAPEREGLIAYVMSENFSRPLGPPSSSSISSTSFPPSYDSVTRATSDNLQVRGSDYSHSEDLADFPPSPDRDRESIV

hNav1.7 = hNav1.7 (Homo sapiens, UniProt Q15858); format: cell-based; conditions: IonWorks Quattro; clamped to −110 mV, depolarized to −10 mV, 5 min after compound; n=2; read-out: IWQ Use Nav1.7

Chain of hNav1.3 (Q9NY46 whole entry, looked up): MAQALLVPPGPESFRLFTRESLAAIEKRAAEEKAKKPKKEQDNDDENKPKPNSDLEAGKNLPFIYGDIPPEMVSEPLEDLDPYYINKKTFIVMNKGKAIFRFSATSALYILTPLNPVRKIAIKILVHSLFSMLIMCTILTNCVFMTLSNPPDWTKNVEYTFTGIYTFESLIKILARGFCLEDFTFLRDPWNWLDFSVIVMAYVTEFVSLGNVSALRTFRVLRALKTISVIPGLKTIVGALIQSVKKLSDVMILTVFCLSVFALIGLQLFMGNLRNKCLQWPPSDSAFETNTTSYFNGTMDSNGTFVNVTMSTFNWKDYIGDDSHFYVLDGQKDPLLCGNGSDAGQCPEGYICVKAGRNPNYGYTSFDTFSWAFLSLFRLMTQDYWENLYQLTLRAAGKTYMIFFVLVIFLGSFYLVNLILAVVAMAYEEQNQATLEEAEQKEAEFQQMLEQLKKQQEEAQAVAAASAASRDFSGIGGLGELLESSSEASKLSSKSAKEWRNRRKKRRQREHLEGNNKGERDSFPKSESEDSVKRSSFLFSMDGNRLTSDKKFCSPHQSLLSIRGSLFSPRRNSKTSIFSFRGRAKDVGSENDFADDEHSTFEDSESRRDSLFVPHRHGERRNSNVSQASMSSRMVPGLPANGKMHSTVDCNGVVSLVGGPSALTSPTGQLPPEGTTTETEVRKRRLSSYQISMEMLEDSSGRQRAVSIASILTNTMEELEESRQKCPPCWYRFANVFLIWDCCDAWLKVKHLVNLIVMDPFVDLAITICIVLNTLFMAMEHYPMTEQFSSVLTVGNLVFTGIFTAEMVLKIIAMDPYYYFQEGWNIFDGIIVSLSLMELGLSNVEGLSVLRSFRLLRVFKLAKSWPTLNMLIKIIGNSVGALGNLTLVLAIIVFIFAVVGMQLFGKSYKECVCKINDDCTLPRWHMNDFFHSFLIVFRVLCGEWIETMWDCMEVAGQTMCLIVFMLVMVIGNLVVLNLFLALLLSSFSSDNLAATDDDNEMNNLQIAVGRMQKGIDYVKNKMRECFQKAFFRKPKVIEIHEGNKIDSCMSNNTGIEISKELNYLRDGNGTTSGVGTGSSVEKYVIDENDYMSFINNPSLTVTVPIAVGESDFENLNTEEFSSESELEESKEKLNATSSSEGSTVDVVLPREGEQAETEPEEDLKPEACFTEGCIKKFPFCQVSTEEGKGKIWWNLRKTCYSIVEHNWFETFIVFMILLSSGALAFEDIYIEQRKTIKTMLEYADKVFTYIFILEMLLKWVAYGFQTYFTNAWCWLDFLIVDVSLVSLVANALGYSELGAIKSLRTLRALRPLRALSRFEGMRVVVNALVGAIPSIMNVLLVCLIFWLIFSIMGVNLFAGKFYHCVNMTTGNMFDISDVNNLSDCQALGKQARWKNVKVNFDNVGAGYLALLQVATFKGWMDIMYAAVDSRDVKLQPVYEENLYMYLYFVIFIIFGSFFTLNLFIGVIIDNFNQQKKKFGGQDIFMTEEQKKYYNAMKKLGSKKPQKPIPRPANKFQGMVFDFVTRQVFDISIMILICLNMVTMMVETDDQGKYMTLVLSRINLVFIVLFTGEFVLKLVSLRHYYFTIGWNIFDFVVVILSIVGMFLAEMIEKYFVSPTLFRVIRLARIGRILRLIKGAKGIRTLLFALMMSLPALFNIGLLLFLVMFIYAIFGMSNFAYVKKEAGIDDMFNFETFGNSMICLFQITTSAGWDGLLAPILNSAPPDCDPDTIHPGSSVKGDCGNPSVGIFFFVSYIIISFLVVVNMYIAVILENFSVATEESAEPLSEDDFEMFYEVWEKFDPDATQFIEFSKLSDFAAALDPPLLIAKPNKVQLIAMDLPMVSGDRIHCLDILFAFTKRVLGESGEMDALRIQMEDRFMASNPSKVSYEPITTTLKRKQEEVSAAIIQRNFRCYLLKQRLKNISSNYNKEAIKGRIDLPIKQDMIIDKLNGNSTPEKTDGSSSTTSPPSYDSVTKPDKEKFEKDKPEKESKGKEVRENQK

| SMILES | pIC50 (hNav1.3) | pIC50 (hNav1.5) | pIC50 (hNav1.7) |
| --- | --- | --- | --- |
| CC[C@H](C)[C@@H]1NC(=O)[C@@H]2CSSC[C@@H]3NC(=O)[C@H](C(C)C)NC(=O)[C@H](CC(C)C)NC(=O)[C@H](CC(N)=O)NC(=O)[C@@H]4CCCN4C(=O)[C@H](CCCNC(=N)N)NC(=O)[C@H](CSSC[C@H](NC(=O)[C@@H](N)CC(=O)O)C(=O)N[C@@H](CC(C)C)C(=O)NCC(=O)N[C@@H](Cc4ccccc4)C(=O)N[C@@H](CC(N)=O)C(=O)N[C@@H](CCCNC(=N)N)C(=O)N[C@@H](CCCCN)C(=O)N2)NC(=O)[C@H](CSSC[C@@H](C(=O)N[C@@H](CCCCN)C(=O)N[C@@H](Cc2ccc(O)cc2)C(=O)N[C@H](C(=O)N[C@@H](Cc2ccccc2)C(N)=O)C(C)C)NC(=O)[C@H](Cc2c[nH]c4ccccc24)NC(=O)[C@H](CCCCN)NC(=O)[C@H](Cc2c[nH]cn2)NC(=O)[C@H]([C@@H](C)O)NC(=O)[C@H](CCCNC(=N)N)NC(=O)[C@H](CO)NC3=O)NC(=O)[C@H](CCCCN)NC(=O)[C@H](CC(=O)O)NC(=O)[C@H](CC(N)=O)NC(=O)[C@H](CC(=O)O)NC(=O)[C@@H]2CCCN2C1=O [SEQ ID NO: 278] (H-DCLGFNRKCIPDNDKCCRPNLVCSRTHKWCKYVF-NH2; disulfide 2-17, 9-23, 16-30) | 5.20 | 4.99 | 5.16 |
| CC[C@H](C)[C@@H]1NC(=O)[C@@H]2CSSC[C@@H]3NC(=O)[C@H](C(C)C)NC(=O)[C@H](CC(C)C)NC(=O)[C@H](CC(N)=O)NC(=O)[C@@H]4CCCN4C(=O)[C@H](CCCNC(=N)N)NC(=O)[C@H](CSSC[C@H](NC(=O)[C@@H](N)CC(=O)O)C(=O)N[C@@H](CC(C)C)C(=O)NCC(=O)N[C@@H](Cc4ccccc4)C(=O)N[C@@H](CCC(N)=O)C(=O)N[C@@H](CCCNC(=N)N)C(=O)N[C@@H](CCCCN)C(=O)N2)NC(=O)[C@H](CSSC[C@@H](C(=O)N[C@@H](CCCCN)C(=O)N[C@@H](Cc2ccc(O)cc2)C(=O)N[C@H](C(=O)N[C@@H](Cc2ccccc2)C(N)=O)C(C)C)NC(=O)[C@H](Cc2c[nH]c4ccccc24)NC(=O)[C@H](CCCCN)NC(=O)[C@H](Cc2c[nH]cn2)NC(=O)[C@H]([C@@H](C)O)NC(=O)[C@H](CCCNC(=N)N)NC(=O)[C@H](CO)NC3=O)NC(=O)[C@H](CCCCN)NC(=O)[C@H](CC(=O)O)NC(=O)[C@H](CC(N)=O)NC(=O)[C@H](CC(=O)O)NC(=O)[C@@H]2CCCN2C1=O [SEQ ID NO: 279] (H-DCLGFQRKCIPDNDKCCRPNLVCSRTHKWCKYVF-NH2; disulfide 2-17, 9-23, 16-30) | 5.22 | 5.12 | 5.06 |
| CC[C@H](C)[C@@H]1NC(=O)[C@@H]2CSSC[C@@H]3NC(=O)[C@H](C(C)C)NC(=O)[C@H](CC(C)C)NC(=O)[C@H](CC(N)=O)NC(=O)[C@@H]4CCCN4C(=O)[C@H](CCCNC(=N)N)NC(=O)[C@H](CSSC[C@H](NC(=O)[C@@H](N)CC(=O)O)C(=O)N[C@@H](CC(C)C)C(=O)NCC(=O)N[C@@H](Cc4ccccc4)C(=O)NCC(=O)N[C@@H](CCCNC(=N)N)C(=O)N[C@@H](CCCCN)C(=O)N2)NC(=O)[C@H](CSSC[C@@H](C(=O)N[C@@H](CCCCN)C(=O)N[C@@H](Cc2ccc(O)cc2)C(=O)N[C@H](C(=O)N[C@@H](Cc2ccccc2)C(N)=O)C(C)C)NC(=O)[C@H](Cc2c[nH]c4ccccc24)NC(=O)[C@H](CCCCN)NC(=O)[C@H](Cc2c[nH]cn2)NC(=O)[C@H]([C@@H](C)O)NC(=O)[C@H](CCCNC(=N)N)NC(=O)[C@H](CO)NC3=O)NC(=O)[C@H](CCCCN)NC(=O)[C@H](CC(=O)O)NC(=O)[C@H](CC(N)=O)NC(=O)[C@H](CC(=O)O)NC(=O)[C@@H]2CCCN2C1=O [SEQ ID NO: 280] (H-DCLGFGRKCIPDNDKCCRPNLVCSRTHKWCKYVF-NH2; disulfide 2-17, 9-23, 16-30) | 6.85 | 5.09 | 6.74 |
| CC[C@H](C)[C@@H]1NC(=O)[C@@H]2CSSC[C@@H]3NC(=O)[C@H](C(C)C)NC(=O)[C@H](CC(C)C)NC(=O)[C@H](CC(N)=O)NC(=O)[C@@H]4CCCN4C(=O)[C@H](CCCNC(=N)N)NC(=O)[C@H](CSSC[C@H](NC(=O)[C@@H](N)CC(=O)O)C(=O)N[C@@H](CC(C)C)C(=O)NCC(=O)N[C@@H](Cc4ccccc4)C(=O)N[C@@H](Cc4c[nH]cn4)C(=O)N[C@@H](CCCNC(=N)N)C(=O)N[C@@H](CCCCN)C(=O)N2)NC(=O)[C@H](CSSC[C@@H](C(=O)N[C@@H](CCCCN)C(=O)N[C@@H](Cc2ccc(O)cc2)C(=O)N[C@H](C(=O)N[C@@H](Cc2ccccc2)C(N)=O)C(C)C)NC(=O)[C@H](Cc2c[nH]c4ccccc24)NC(=O)[C@H](CCCCN)NC(=O)[C@H](Cc2c[nH]cn2)NC(=O)[C@H]([C@@H](C)O)NC(=O)[C@H](CCCNC(=N)N)NC(=O)[C@H](CO)NC3=O)NC(=O)[C@H](CCCCN)NC(=O)[C@H](CC(=O)O)NC(=O)[C@H](CC(N)=O)NC(=O)[C@H](CC(=O)O)NC(=O)[C@@H]2CCCN2C1=O [SEQ ID NO: 281] (H-DCLGFHRKCIPDNDKCCRPNLVCSRTHKWCKYVF-NH2; disulfide 2-17, 9-23, 16-30) | 5.11 | 5.00 | 5.33 |
| CC[C@H](C)[C@@H]1NC(=O)[C@H](Cc2ccccc2)NC(=O)CNC(=O)[C@H](CC(C)C)NC(=O)[C@@H](NC(=O)[C@@H](N)CC(=O)O)CSSC[C@@H]2NC(=O)[C@@H]3CSSC[C@@H](C(=O)N[C@@H](CCCCN)C(=O)N[C@@H](Cc4ccc(O)cc4)C(=O)N[C@H](C(=O)N[C@@H](Cc4ccccc4)C(N)=O)C(C)C)NC(=O)[C@H](Cc4c[nH]c5ccccc45)NC(=O)[C@H](CCCCN)NC(=O)[C@H](Cc4c[nH]cn4)NC(=O)[C@H]([C@@H](C)O)NC(=O)[C@H](CCCNC(=N)N)NC(=O)[C@H](CO)NC(=O)[C@H](CSSC[C@H](NC(=O)[C@H](CCCCN)NC(=O)[C@H](CCCNC(=N)N)NC1=O)C(=O)N[C@@H]([C@@H](C)CC)C(=O)N1CCC[C@H]1C(=O)N[C@@H](CC(=O)O)C(=O)N[C@@H](CC(N)=O)C(=O)N[C@@H](CC(=O)O)C(=O)N[C@@H](CCCCN)C(=O)N3)NC(=O)[C@H](C(C)C)NC(=O)[C@H](CC(C)C)NC(=O)[C@H](CC(N)=O)NC(=O)[C@@H]1CCCN1C(=O)[C@H](CCCNC(=N)N)NC2=O [SEQ ID NO: 282] (H-DCLGFIRKCIPDNDKCCRPNLVCSRTHKWCKYVF-NH2; disulfide 2-17, 9-23, 16-30) | 7.22 | 5.06 | 7.15 |
| CC[C@H](C)[C@@H]1NC(=O)[C@@H]2CSSC[C@@H]3NC(=O)[C@H](C(C)C)NC(=O)[C@H](CC(C)C)NC(=O)[C@H](CC(N)=O)NC(=O)[C@@H]4CCCN4C(=O)[C@H](CCCNC(=N)N)NC(=O)[C@H](CSSC[C@H](NC(=O)[C@@H](N)CC(=O)O)C(=O)N[C@@H](CC(C)C)C(=O)NCC(=O)N[C@@H](Cc4ccccc4)C(=O)N[C@@H](CO)C(=O)N[C@@H](CCCNC(=N)N)C(=O)N[C@@H](CCCCN)C(=O)N2)NC(=O)[C@H](CSSC[C@@H](C(=O)N[C@@H](CCCCN)C(=O)N[C@@H](Cc2ccc(O)cc2)C(=O)N[C@H](C(=O)N[C@@H](Cc2ccccc2)C(N)=O)C(C)C)NC(=O)[C@H](Cc2c[nH]c4ccccc24)NC(=O)[C@H](CCCCN)NC(=O)[C@H](Cc2c[nH]cn2)NC(=O)[C@H]([C@@H](C)O)NC(=O)[C@H](CCCNC(=N)N)NC(=O)[C@H](CO)NC3=O)NC(=O)[C@H](CCCCN)NC(=O)[C@H](CC(=O)O)NC(=O)[C@H](CC(N)=O)NC(=O)[C@H](CC(=O)O)NC(=O)[C@@H]2CCCN2C1=O [SEQ ID NO: 284] (H-DCLGFSRKCIPDNDKCCRPNLVCSRTHKWCKYVF-NH2; disulfide 2-17, 9-23, 16-30) | 6.15 | 4.77 | 5.99 |
| CC[C@H](C)[C@@H]1NC(=O)[C@@H]2CSSC[C@@H]3NC(=O)[C@H](C(C)C)NC(=O)[C@H](CC(C)C)NC(=O)[C@H](CC(N)=O)NC(=O)[C@@H]4CCCN4C(=O)[C@H](CCCNC(=N)N)NC(=O)[C@H](CSSC[C@H](NC(=O)[C@@H](N)CC(=O)O)C(=O)N[C@@H](CC(C)C)C(=O)NCC(=O)N[C@@H](Cc4ccccc4)C(=O)N[C@@H]([C@@H](C)O)C(=O)N[C@@H](CCCNC(=N)N)C(=O)N[C@@H](CCCCN)C(=O)N2)NC(=O)[C@H](CSSC[C@@H](C(=O)N[C@@H](CCCCN)C(=O)N[C@@H](Cc2ccc(O)cc2)C(=O)N[C@H](C(=O)N[C@@H](Cc2ccccc2)C(N)=O)C(C)C)NC(=O)[C@H](Cc2c[nH]c4ccccc24)NC(=O)[C@H](CCCCN)NC(=O)[C@H](Cc2c[nH]cn2)NC(=O)[C@H]([C@@H](C)O)NC(=O)[C@H](CCCNC(=N)N)NC(=O)[C@H](CO)NC3=O)NC(=O)[C@H](CCCCN)NC(=O)[C@H](CC(=O)O)NC(=O)[C@H](CC(N)=O)NC(=O)[C@H](CC(=O)O)NC(=O)[C@@H]2CCCN2C1=O [SEQ ID NO: 285] (H-DCLGFTRKCIPDNDKCCRPNLVCSRTHKWCKYVF-NH2; disulfide 2-17, 9-23, 16-30) | 6.55 | 4.73 | 6.23 |
| CC[C@H](C)[C@@H]1NC(=O)[C@@H]2CSSC[C@@H]3NC(=O)[C@H](C(C)C)NC(=O)[C@H](CC(C)C)NC(=O)[C@H](CC(N)=O)NC(=O)[C@@H]4CCCN4C(=O)[C@H](CCCNC(=N)N)NC(=O)[C@H](CSSC[C@H](NC(=O)[C@@H](N)CC(=O)O)C(=O)N[C@@H](CC(C)C)C(=O)NCC(=O)N[C@@H](Cc4ccccc4)C(=O)N[C@@H](C(C)C)C(=O)N[C@@H](CCCNC(=N)N)C(=O)N[C@@H](CCCCN)C(=O)N2)NC(=O)[C@H](CSSC[C@@H](C(=O)N[C@@H](CCCCN)C(=O)N[C@@H](Cc2ccc(O)cc2)C(=O)N[C@H](C(=O)N[C@@H](Cc2ccccc2)C(N)=O)C(C)C)NC(=O)[C@H](Cc2c[nH]c4ccccc24)NC(=O)[C@H](CCCCN)NC(=O)[C@H](Cc2c[nH]cn2)NC(=O)[C@H]([C@@H](C)O)NC(=O)[C@H](CCCNC(=N)N)NC(=O)[C@H](CO)NC3=O)NC(=O)[C@H](CCCCN)NC(=O)[C@H](CC(=O)O)NC(=O)[C@H](CC(N)=O)NC(=O)[C@H](CC(=O)O)NC(=O)[C@@H]2CCCN2C1=O [SEQ ID NO: 287] (H-DCLGFVRKCIPDNDKCCRPNLVCSRTHKWCKYVF-NH2; disulfide 2-17, 9-23, 16-30) | 7.10 | 5.03 | 7.05 |

Source: US9340590B2 (priority 2011, dated 2016)
